Tests used:
[1] = system: German cockroaches (Blattella germanica); assay: Repellency test against German cockroaches with impregnated filter paper triangular pillar; type: in vivo; conditions: 24 hours later, dosage 833 mg/m^2; for No. of cockroaches (German cockroaches in the triangular pillar): test repeated twice
Experimental: A triangular pillar (3 cm-equilateral triangle of opening, 6 cm in length) was prepared with filter paper, and the acetone solution (0.9 ml) prepared according to Production example 2 was impregnated with the triangular pillar uniformly and air-dried for 5 to 10 minutes.
In a 650 cc volume plastic cup, said triangular pillar was placed horizontally, German cockroaches (Blattella germanica, 5 males and 5 females) were placed in said plastic cup, covered with nylon gauze, and then observed the number of German cockroaches in the triangular pillar 24 hours later. The test was repeated twice.
Further, the same procedure was performed using a triangular pillar of filter paper impregnated acetone without active ingredient, and the number of German cockroaches in the triangular pillar 24 hours later was counted. […] [formula]
Furthermore, the same procedure was performed using acetone solution prepared according to Production example 2, provided that DEET or MGK874 was used in place of Compound [A] for comparison.

[2] = system: yellow fever mosquitoes (Aedes aegypti); assay: Repellency test against yellow fever mosquitoes on treated chick abdomen; type: in vivo; conditions: dosage 3 g/m^2, ethanol solution on chick abdomen
Experimental: Fifty adult yellow fever mosquitoes (Aedes aegypti, approximately equal number of female and male) which were about 3 weeks old after emergence were released in a cage (22 cm×22 cm×30 cm, made of stainless steel and nylon gauge).
A chick whose abdominal feathers had been removed with haircutter was fixed on a wood board (7 cm×15 cm) having a hole of 2.5 cm×4 cm so that its abdominal skin was exposed. Next, the ethanol solution (90 μl) prepared according to Production example 1 was treated on the exposed area of the chick. The chick treated the solution on its abdomen was put on the cage, and the treated abdomen was exposed to the cage just after treating and after 3 hours from treating. After 1, 2 and 4 minutes from putting the chick, the number of yellow fever mosquitoes on the abdomen was counted and summed up. The test was repeated twice.
Further, the same procedure was performed using a chick treated ethanol without active ingredient on its abdomen, and the number of yellow fever mosquitoes on the abdomen was counted. […] [formula]
Furthermore, the same procedure was performed using ethanol solution (90 μl) prepared according to Production example 1, provided that DEET was used in place of Compound [A] for comparison.

SMILES	Repellency (%) [1]	No. of cockroaches (German cockroaches in the triangular pillar) [1]	No. of mosquitoes (sum of yellow fever mosquitoes on the abdomen of the chick after 1, 2 and 4 minutes) ([2]; After 3 hours)	Repellency (%) ([2]; After 3 hours)	No. of mosquitoes (sum of yellow fever mosquitoes on the abdomen of the chick after 1, 2 and 4 minutes) ([2]; Immediately after treating)	Repellency (%) ([2]; Immediately after treating)
CCCCCCCCSCCO [MGK874, 2-(octylthio)ethanol]	15%	17				
CCN(CC)C(=O)c1cccc(C)c1 [DEET, N,N-diethyl-m-toluamide]	0%	20	3	96.5%	0	100%
Cc1cc(O)c(C(=O)CCC(C)C)c(=O)o1 [Compound [A], 4-hydroxy-6-methyl-3-(4-methylpentanoyl)-2-pyrone]	90%	2	0	100%	0	100%

Reference: US6448289B1, “Method for repelling arthropods” (priority 2000, dated 2002)
